Test results: publication PMC11876601 (Molecular Systems Biology, 2025)
Where “and” joins values, the source holds several entries; their conditions need not be identical. Identical values can stand only once. Like-named read-outs stand apart in the source and are kept apart here.

Legend:
MAPK9 = test system: MAPK9; set-up: method as in Klaeger et al. (2017); conditions: lysate 4 cell line mix (Colo205, K-562, MV-4-11, and SK-N-BE(2)), Kinobeads y, ref Klaeger et al. (2017); cited from earlier work
MAPK8 = test system: MAPK8; set-up: method as in Klaeger et al. (2017); conditions: lysate 4 cell line mix (Colo205, K-562, MV-4-11, and SK-N-BE(2)), Kinobeads y, ref Klaeger et al. (2017); cited from earlier work
CLK2 = test system: CLK2; set-up: method as in Reinecke et al. (2023); conditions: CLK2, 5 cell line mix lysate, Kinobeads ε, ref Reinecke et al. (2023), cited from earlier work
BCR = conditions: 5 cell line mix lysate, Kinobeads ε, ref Reinecke et al. (2023), cited from earlier work
FES = biological target: FES; set-up: method as in Reinecke et al. (2023); conditions: 5 cell line mix lysate, Kinobeads ε, ref Reinecke et al. (2023), cited from earlier work
MAP3K5 = test system: MAP3K5; set-up: method as in Reinecke et al. (2023); conditions: MAP3K5, 5 cell line mix lysate, Kinobeads ε, ref Reinecke et al. (2023), cited from earlier work
PDO UME053 = test: PDO viability assay (CellTiter-Glo, 72 h); assay type: cell-based, human; set-up: Curve top / Curve bottom: scale not given here;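 on Curve top: fraction of plate-wise median vehicle signal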
Experimental: Primary patient-derived PDAC organoid (PDO) experiments were performed in the laboratories of Prof. Maximilian Reichert (University Hospital of the TU Munich, Germany, PDO set 1: B250, B535, B678) and Prof. Jens T. Siveke (University Hospital Essen, Germany; PDO set 2: UME008, UME012, UME051, UME053, UME060, UME061). PDOs were generated from surgical resection, EUS-guided fine needle biopsy (EUS-FNB), or ascites (Appendix Table S2). Surgical specimens were first minced with a sterile scalpel and subsequently washed with Anti-Anti solution and washing medium (PDO set 1), or vice versa (PDO set 2; Appendix Table S3). Biopsy samples were directly washed with an Anti-Anti solution and washing medium. Samples were digested using 1 ml of digestion medium at 37 °C while shaking, and the enzymatic reaction was stopped by adding 15 ml of washing medium (Appendix Table S3). If samples of PDO set 1 were blood-stained, tissue pellets were first incubated with ACK lysing buffer/red blood cells lysis buffer (Thermo Fisher Scientific) for 5 min and then digested using TrypLE (Thermo Fisher Scientific). The reversed procedure was applied for blood-stained samples of PDO set 2. For PDO generation from ascites, the material was first spun down at 500 × g for 5 min. Then, washing medium was added and the suspension was centrifuged at 300 × g for 5 min. If the pellet was blood-stained, ACK lysis buffer was added and incubated at room temperature.
For viability assays in PDOs, confluent organoids were removed from medium, and Matrigel was dissolved by adding 200 μl (PDO set 1) or 2 ml (PDO set 2) of Cell Recovery Solution (Corning), and additionally 500 μl of DPBS (PDO set 1 only). Samples were transferred into a falcon and incubated on ice for 30 min, followed by centrifugation at 300 × g at 4 °C for 5 min (after adding 10 ml washing medium for PDO set 2). Subsequently, TrypLE Express Enzyme (Thermo Fisher) was added to cell pellets and incubated for 2 × 5 min at 37 °C. The enzymatic reaction was quenched by DPBS (PDO set 1) or washing medium (PDO set 2), and samples were washed by centrifugation at 300 × g at 4 °C for 5 min. Five hundred cells/well were seeded in 384-well plates (Corning) in 50 μl of PDO medium containing 10% Matrigel. To allow PDO generation, cells were incubated for 4 days at 37 °C and 5% CO2. […] Experiments were pipetted manually (PDO set 1) or automatically using a TECAN D300e Digital Dispenser (HP; PDO set 2). Treatments were performed in eight replicates, except for PDO PPES045 (quadruplicates). After 72 h, cell viability was measured using the CellTiter-Glo Luminescent Cell Viability Assay (Promega) diluted 1:5 in the final volume of the well. After 20 min of incubation at room temperature under gentle shaking, the acquisition was performed in the microplate reader VantaSTAR (BMG Labtech) using 3000 gain for the amplification measurement of a detected signal (PDO set 1) or the Spark Multimode microplate reader (TECAN) at 800 ms integration time (PDO set 2).

[1] = PDO UME053, GEM + Elimusertib (ATRi) dose1, per replicate
[2] = PDO UME053, GEM + Elimusertib (ATRi) dose2, per replicate
[3] = PDO UME053, GEM + Elimusertib (ATRi) dose3, per replicate
[4] = PDO UME053, GEM alone, per replicate
[5] = PDO UME053, experiment GEM (GEM alone), curve fit

In the case of `C[C@]12O[C@H](C[C@]1(O)CO)n1c3ccccc3c3c4c(c5c6ccccc6n2c5c31)CNC4=O` [Lestaurtinib], the EC50 (MAPK9) is given as 2470 nM and the EC50 (MAPK8) is given as 1210 nM.
In the case of `COc1cc(N2CCC(N3CCN(C)CC3)CC2)ccc1Nc1ncc(Cl)c(Nc2ccccc2P(C)(C)=O)n1` [Brigatinib], the EC50 (CLK2) is listed as 686 nM, the pKDapp (CLK2) is listed as 6.35 and the Kd (CLK2; read-out: KDapp) is listed as 444 nM. For the same compound, the Kd (BCR; read-out: KDapp) was 504 nM, the EC50 (BCR) was 1050 nM and the pKDapp (BCR) was 6.30. For the same compound, the Kd (FES; read-out: KDapp) was 63 nM, the EC50 (FES) was 170 nM and the pKDapp (FES) was 7.20. For the same compound, the EC50 (MAP3K5) was 970 nM, the pKDapp (MAP3K5) was 6.11 and the Kd (MAP3K5; read-out: KDapp) was 776 nM.
In the case of `Nc1ccn([C@@H]2O[C@H](CO)[C@@H](O)C2(F)F)c(=O)n1` [GEM, Gemcitabine], the EC50 (PDO UME053; Homo sapiens, PDO UME053, GEM + Elimusertib (ATRi) dose1, mean of replicates, read-out: EC50 mean) is reported as 3.76 nM, the EC50 (PDO UME053; Homo sapiens, PDO UME053, GEM + Elimusertib (ATRi) dose1, per replicate, read-out: EC50) is reported as 4.76 nM and the EC50 (PDO UME053; Homo sapiens, PDO UME053, GEM + Elimusertib (ATRi) dose1, per replicate, read-out: pEC50 (converted)) is reported as 4.79 nM. For the same compound, the EC50 (PDO UME053; Homo sapiens, PDO UME053, GEM + Elimusertib (ATRi) dose2, mean of replicates, read-out: EC50 mean) was 2.48 nM, the EC50 (PDO UME053; Homo sapiens, PDO UME053, GEM + Elimusertib (ATRi) dose3, mean of replicates, read-out: EC50 mean) was 2.58 nM and the EC50 (PDO UME053; Homo sapiens, PDO UME053, GEM alone, mean of replicates, read-out: EC50 mean) was 3.83 nM. It also gave an EC50 (PDO UME053; Homo sapiens, PDO UME053, GEM alone, per replicate, read-out: EC50) of 4.9 nM, an EC50 (PDO UME053; Homo sapiens, PDO UME053, GEM alone, per replicate, read-out: pEC50 (converted)) of 4.9 nM and an EC50 (PDO UME053; Homo sapiens, PDO UME053, GEM alone, read-out: EC50 mean) of 3.8 nM. It also gave an EC50 (PDO UME053; Homo sapiens, PDO UME053, experiment GEM (GEM alone), mean of replicates, read-out: EC50 mean) of 3.83 nM, an EC50 (PDO UME053; Homo sapiens, PDO UME053, experiment GEM (GEM alone), single replicates, read-out: pEC50 (converted)) of 5.75 nM and an EC50 (PDO UME053; Homo sapiens, SET-2, PDO UME053, PDO set 2, experiment GEM (GEM alone), single replicates, read-out: EC50) of 5.76 nM. For the same compound, the Curve bottom (PDO UME053; [1]) was 4.76 and 3.51 and 3.42 and 4.59 and 3.68 and 3.05, the Curve slope (PDO UME053; [1]) was -0.0232 and -0.0231 and -0.0214 and -0.0351 and 0.00541 and -0.00734 and the Curve top (PDO UME053; [1]) was 1.03 and 0.94. The pEC50 (PDO UME053; [1]) was 8.45 and 8.47 and 8.34 and 8.43 and 8.52, the EC50 (PDO UME053; PDO UME053, GEM + Elimusertib (ATRi) dose1, per replicate, read-out: EC50) was 3.51 nM and 3.42 nM and 4.59 nM and 3.68 nM and 3.05 nM and the Curve bottom (PDO UME053; [2]) was 3.13 and 3.73 and 2.51 and 1.19 and 1.27. For the same compound, the Curve slope (PDO UME053; [2]) was -0.0242 and -0.026 and -0.0173 and -0.00205 and -0.00262, the Curve top (PDO UME053; [2]) was 1.01 and 0.93 and 0.97 and 0.99 and the pEC50 (PDO UME053; [2]) was 8.50 and 8.43 and 8.60 and 8.92 and 8.90. For the same compound, the EC50 (PDO UME053; PDO UME053, GEM + Elimusertib (ATRi) dose2, per replicate, read-out: EC50) was 3.13 nM and 3.73 nM and 2.51 nM and 1.19 nM and 1.27 nM, the Curve bottom (PDO UME053; [3]) was 2.72 and 2.86 and 2.18 and 1.18 and 1.85 and the Curve slope (PDO UME053; [3]) was -0.02 and -0.027 and -0.013 and -0.0115. The Curve top (PDO UME053; [3]) was 0.85 and 0.95 and 0.90, the pEC50 (PDO UME053; [3]) was 8.56 and 8.54 and 8.66 and 8.93 and 8.73 and the EC50 (PDO UME053; PDO UME053, GEM + Elimusertib (ATRi) dose3, per replicate, read-out: EC50) was 2.72 nM and 2.86 nM and 2.18 nM and 1.18 nM and 1.85 nM. For the same compound, the Curve bottom (PDO UME053; [4]) was 4.90 and 3.43 and 2.87 and 2.77 and 4.39 and 2.68, the Curve slope (PDO UME053; [4]) was -0.0183 and 6.71e-5 and 0.00446 and -0.00144 and 0.00242 and 0.00525 and the Curve top (PDO UME053; [4]) was 1.30 and 1.34. The pEC50 (PDO UME053; [4]) was 8.46 and 8.54 and 8.56 and 8.36 and 8.57, the EC50 (PDO UME053; PDO UME053, GEM alone, per replicate, read-out: EC50) was 3.43 nM and 2.87 nM and 2.77 nM and 4.39 nM and 2.68 nM and the EC50 (PDO UME053; PDO UME053, PDO set 2, experiment GEM (GEM alone), single replicates, read-out: EC50) was 3.82 nM. For the same compound, the Curve bottom (PDO UME053; [5]) was 5.76 and 3.82, the Curve top (PDO UME053; [5]) was 0.62 and the pEC50 (PDO UME053; PDO UME053, experiment GEM (GEM alone), single replicates) was 8.42.
